SMILES strings stand for the structures.

The series is described as follows: gradient 5% acetonitrile 3 min, to 50% in 2 min, to 85% in 15 min, held 3 min, 100 µL/min. As to conditions: column: Zorbax Extend-C18 2.1 x 50 mm; eluents: water / acetonitrile, 0.1% formic acid. Put shortly: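 Pure standards were analyzed in mixtures of ~100 molecules using HPLC coupled to a quadrupole time-of-flight mass spectrometer, in both positive and negative ionization mode. Separation used a Zorbax Extend-C18 column (2.1 × 50 mm, 1.8 μm) at 100 μL/min, with water and acetonitrile each containing 0.1% formic acid. Dead and dwell volumes were 40 μL and 900 μL, and data were collected over 3 months. Retention time was read from computationally picked adduct peaks, each inspected manually.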
`CCc1ccc(-c2ccc(SCC(=O)Nc3cc(Cl)ccc3OC)nn2)cc1` had an RP-LC retention time of 1180 s. `CCN1CCCn2cc(S(=O)(=O)Nc3cccc(C)c3)cc2C1=O` yielded an RP-LC retention time of 724 s. Compound `CCCCOc1ccc(-c2nc(C3CC(=O)N(c4ccc(OC)cc4)C3)no2)cc1` (configuration not stated) gave an RP-LC retention time of 1200 s. `C=CCN1CCN(c2nc3cc(C(=O)OC)ccc3c(=O)n2-c2ccccc2)CC1`: the RP-LC retention time was found to be 637 s. Next, `COc1ccccc1NS(=O)(=O)c1cn(CC(C)C)c2ncccc12`: 979 s; `CN(C(=O)Cn1c(=O)oc2ccccc21)C1CCc2nn(C)c(=O)n2CC1` (configuration not stated): 633 s. In turn, `Cn1nnc2cc(-c3noc(COc4ccc(Cl)cc4)n3)ccc21` came in with an RP-LC retention time of 994 s. For `O=c1n(Cc2cc(F)cc(F)c2)nc2c(S(=O)(=O)N3CCCC3)cccn12` the value was 861 s; for `CN(CCCNC(=O)C1CCN(c2nc3ccccc3n(C)c2=O)CC1)C1CCCCC1`, 650 s; for `Cc1nn(CC(=O)NC2CC2)c(=O)c2nc(-c3ccccc3)sc12`, 711 s. With `CCCNC(=O)C1CCCN(c2nc(C)nc3onc(C)c23)C1` (configuration not stated), the RP-LC retention time came to 690 s. `Cc1nc2c(C(=O)N3CCN(c4ccccn4)CC3)cnn2c(C)c1Cc1ccccc1Cl`: the RP-LC retention time amounted to 697 s. The compound `Cc1[nH]c(=O)[nH]c(=O)c1CCC(=O)Nc1ccccc1C(N)=O` registered an RP-LC retention time of 547 s. Turning to `C=CCN1CCN(C(=O)c2cn(-c3ccc(-c4nc(C(C)(C)C)no4)cn3)cn2)CC1`, the RP-LC retention time amounted to 680 s. In the case of `COc1ccc(N2CCN(C(=O)C3CCCN(c4nc5ccccc5nc4OC)C3)CC2)cc1` (configuration not stated), the RP-LC retention time was found to be 1100 s. For `Cc1ccc(-c2cc3n(n2)C(NCCc2cccs2)CNC3=O)cc1` (configuration not stated) the value was 739 s; for `COc1ccc(-c2nc(Cc3noc(-c4ccccc4)n3)c(C)o2)cc1`, 1100 s; for `CCC1(C(=O)OC)CCc2c(cc(OC)c3ccccc23)C1=O` (configuration not stated), 1250 s. For the compound `Cc1cc(C)cc(C(=O)NC(Cc2ccccc2)c2nnc(N3CCSCC3)o2)c1` (configuration not stated), the RP-LC retention time was determined as 918 s. Take `CC(C)CN1Cc2ccccc2-n2ccnc2C12CCN(C(=O)C1CC1)CC2`: the RP-LC retention time came to 648 s. As to `O=C(NCc1cccs1)NC1CC(=O)N(C2CC2)C1` (configuration not stated), the RP-LC retention time amounted to 589 s. In the case of `COCCCNC(=O)CCc1c(C)n(C)c2nc(-c3ccccc3)nn2c1=O`, the RP-LC retention time was 653 s. Turning to `COc1ccc(NC(=O)C2CCCN(c3nccnc3Sc3ccccc3)C2)c(OC)c1` (configuration not stated), the RP-LC retention time amounted to 1060 s. As to `O=C(NC1CCCC1)C1CC(=O)N(c2ccc3c(c2)CCN3C(=O)C2CCC2)C1` (configuration not stated), the RP-LC retention time was determined as 760 s. With `COc1ccc2c(c1)CCc1sc(NC(=O)c3cc(Cl)ccc3OC)nc1-2`, the RP-LC retention time is 1270 s. For the compound `O=C(Nc1ccccc1)C1CCCN(c2cnc3nccnc3c2)C1` (configuration not stated), the RP-LC retention time turned out to be 703 s. For `CCOc1ccc(NS(=O)(=O)c2cc(-c3[nH]ncc3C(=O)N3CCCC3)oc2C)cc1`, the RP-LC retention time is 717 s.

For `COc1cccc(CNC(=O)CN2C(=O)C3CCCCN3c3ccc(S(=O)(=O)N(C)C)cc32)c1` (configuration not stated), the RP-LC retention time is 887 s. For the compound `COc1ccc(-c2nnc(-c3ccccc3)o2)cc1S(=O)(=O)NCC(=O)O`, the RP-LC retention time was 703 s. The compound `Cc1cc(OCC(=O)Nc2ccc(F)cc2)nc(N2CCN(c3ccccc3)CC2)n1` returned an RP-LC retention time of 823 s.

As for `Cc1ccccc1C(=O)Nc1nc(-c2ccc3c(c2)NC(=O)CO3)c(C)s1`, the RP-LC retention time was found to be 898 s.

`CCc1ccccc1NS(=O)(=O)c1cc(-c2nc(C)cs2)sc1C` registered an RP-LC retention time of 1100 s. On to `Cc1nc2c(NC(=O)c3ccc(Cl)cc3)cccn2n1`, for which the RP-LC retention time is 835 s.

`COc1ccc(N2CC(c3nnc(NC(=O)c4ccc(Cl)cc4)o3)CC2=O)cc1` (configuration not stated) showed an RP-LC retention time of 835 s. `CN(C)c1cc(-n2cnc(C(=O)Nc3ccc4c(c3)OCCO4)c2)ncn1` registered an RP-LC retention time of 755 s. Next, `COc1cccc(C(O)CN2CCN(c3cccc(OC)c3)CC2)c1` (configuration not stated): 659 s. Regarding `Cc1nnc2c(=O)n(CC(=O)NCc3ccc(F)cc3)c3cccnc3n12`, the RP-LC retention time was 656 s. `O=C(Cn1nc(C(=O)N2CCCC2)c2ccccc21)Nc1cccc(Cl)c1`: the RP-LC retention time turned out to be 875 s. As to `COc1ccc(CNC(=O)Nc2ccc(-c3nc(-c4ccccc4)co3)cc2)cc1`, the RP-LC retention time turned out to be 1050 s.

The compound `Cc1ccccc1CNC(=O)CCc1c(-c2ccc(Br)cc2)nc2ccccn12` showed an RP-LC retention time of 722 s. For `O=C(Nc1ccc2c(c1)C(=O)NCC2)Nc1ccccc1C(F)(F)F`, the RP-LC retention time turned out to be 694 s.

Compound `Cc1noc(-c2cccc(OC3CN(C(=O)c4sccc4C)C3)c2)n1` gave an RP-LC retention time of 900 s. `O=C1C(c2cccnc2)N(CC2CCCCC2)C(=O)CN1c1ccccc1` (configuration not stated): the RP-LC retention time was 771 s.

In turn, `O=C(c1cc(-c2ccccn2)n[nH]1)N1CCN(C(=O)C2CCC2)CC1` registered an RP-LC retention time of 612 s. For `O=C(CSc1ncc(CO)n1Cc1ccc(F)cc1)N1CCCc2ccccc21` the value was 702 s.

For the compound `CCc1noc(NC(C)=O)c1-c1ccc(C)c(S(=O)(=O)N2CCCc3ccccc32)c1`, the RP-LC retention time came out at 953 s. For the compound `CN1CCn2cc(S(=O)(=O)Nc3ccc(F)cc3)cc2C1=O`, the RP-LC retention time is 678 s. The compound `CCC(C)NC(=O)CSc1nccc(N2CCN(c3cc(C)ccc3C)CC2)n1` (configuration not stated) returned an RP-LC retention time of 873 s. Compound `COC(=O)c1sc2ccccc2c1S(=O)(=O)N1CCN(c2ccccn2)CC1` had an RP-LC retention time of 752 s. `CCOC(=O)C1CCCN(Cc2nc3nc(C)cc(N4CCC(C)CC4)n3n2)C1` (configuration not stated) returned an RP-LC retention time of 652 s. As to `Cc1noc(C2(NC(=O)c3ccc(Br)cc3)CCCCC2)n1`, the RP-LC retention time worked out at 924 s. Compound `COc1ccc(Br)c2c1-c1nc(NC(=O)c3cccc(F)c3)sc1C2` displayed an RP-LC retention time of 1210 s. For `CCn1c(C)c(CN2CCC(C(=O)NCc3ccccc3C)CC2)c2ccccc21` the value was 742 s. In turn, `Cc1nnc2c(NS(=O)(=O)c3ccccc3C(F)(F)F)cccn12` gave an RP-LC retention time of 689 s. For `CCCn1cc(CCNC(=O)Nc2ccccc2Cl)c2cccnc21` the value was 812 s. In turn, `CCc1ccc(N2C(=O)C3N=NN(c4ccc(Br)c(C)c4)C3C2=O)cc1` (configuration not stated) registered an RP-LC retention time of 1190 s. Next, `Cc1cc(C)c2c(N3CCSCC3)nc(C(=O)NCCN3CCCCC3)nc2n1`: 559 s. As to `Nc1nc(-c2ccc(S(=O)(=O)N3CCOCC3)cc2)cs1`, the RP-LC retention time was found to be 620 s. Turning to `COCCCNC(=O)C1CCN(c2ncccc2S(=O)(=O)N2CCCCC2)CC1`, the RP-LC retention time amounted to 728 s. In turn, `CCC1(C(=O)Nc2ccc(OC)cc2)CCCCC(=O)N1` (configuration not stated) gave an RP-LC retention time of 666 s. In the case of `CC(=O)N1CCC(C2CCN(Cc3ccc(Br)s3)C2)CC1` (configuration not stated), the RP-LC retention time amounted to 603 s. The compound `Cc1cc(C)n(-c2ccnc(N3CCC(C(=O)NCC4CC4)CC3)n2)n1` gave an RP-LC retention time of 739 s.

`CCn1c(CCC(=O)NCc2ccc(F)cc2F)nc2c(C)cccc2c1=O` gave an RP-LC retention time of 872 s.

In turn, `COc1ccc(N2C(=O)CC(c3ccc(OC)c(OC)c3)CC2=O)cc1Cl` gave an RP-LC retention time of 845 s.

In turn, `Cc1ccn2cc(CCNC(=O)c3ccc(C(F)(F)F)cc3)nc2c1` showed an RP-LC retention time of 580 s. For `CCCNC(=O)N1CCC(CCOc2cccnc2)CC1` the value was 588 s. In turn, `Cc1cc(Cl)ccc1NC(=O)c1cc(C(C)C)on1` had an RP-LC retention time of 1090 s.

In the case of `O=C(CCn1cnc2cc(-c3noc(-c4ccccc4Br)n3)ccc21)N1CCOCC1`, the RP-LC retention time stood at 743 s.

On to `COc1ccc(-c2noc(-c3ccc(NCC4CCCO4)nn3)n2)cc1` (configuration not stated), for which the RP-LC retention time amounted to 782 s. Next, `CCn1c(CCNC(=O)c2ccc(C)c(F)c2)nc2cccnc21`: 676 s; `O=C(CCCCCCNC(=O)c1cnc(N(c2ccccc2)c2ccccc2)nc1)NO`: 771 s; `CCNc1nc(Nc2cc(F)c(C(=O)N3CCOCC3)cc2OC)ncc1C(F)(F)F`: 915 s. `CC(=O)N1CCc2cc(-c3ccc(C(=O)N4CCC(C)CC4)cc3)ccc21` came in with an RP-LC retention time of 889 s. As for `CCNC(=O)Nc1cccnc1N1CCCCC1`, the RP-LC retention time turned out to be 577 s. `CN(CCc1noc(-c2ccc(C(=O)N(C)Cc3ccco3)cc2)n1)C(=O)c1ccccc1` showed an RP-LC retention time of 817 s. The compound `Clc1ccc(Cc2nnc3ccc(Cl)nn23)cc1` returned an RP-LC retention time of 823 s. For `COc1ccc(-c2nc(-c3ccc4c(c3)oc(=O)n4C)no2)cc1`, the RP-LC retention time was 1020 s. Turning to `COc1ccc(NC(=O)Nc2c(-c3ccc(C)cc3)nc3ccccn23)cc1OC`, the RP-LC retention time is 927 s. As for `Cc1cccc(NC(=O)c2cc(C(C)(C)C)n3nccc3n2)c1`, the RP-LC retention time was 1240 s.

On to `COc1ccc2[nH]c(=O)c(CCC(=O)NCc3ccco3)cc2c1`, for which the RP-LC retention time is 655 s. In the case of `COCC(=O)Nc1cc(-c2nc3ccc(C)cc3[nH]2)ccc1C`, the RP-LC retention time turned out to be 620 s. As for `O=C(Nc1cc(-c2ccsc2)no1)C1CCCC1`, the RP-LC retention time stood at 918 s.

These data come from the METLIN SMRT retention time set (Domingo-Almenara et al. 2019).
